In US6916851B2, “Skin care cosmetic methods of sebum control using carboxyalkylates of branched alcohols and/or alkoxylates thereof” (Unilever Home & Personal Care USA, a division of Conopco, …, priority 2002, dated 2005):
Marks after values point to notes of the source that are not given here.

Tested on: human sebocytes
Test: Inhibition of sebocyte lipogenesis (14C-acetate label remaining in sebocytes)
Type: cell-based
Conditions: for radioactive label remaining in the sebocytes, % of Control / IC50: 20 hour incubation, 96 well plate; for radioactive label remaining in the sebocytes, % of Control: lower = greater inhibition of lipogenesis; for inhibition of lipogenesis, in words: all tested concentrations (1, 10, 100 μM); for IC50: read-out: IC 50 (concentration which provides a 50% sebum suppression relative to the control)
Description: Secondary cultures of human sebocytes obtained from an adult […] were grown in 96-well tissue culture plates (Packard Co.; Meriden, Conn.) until confluent. Sebocyte growth medium consisted of Clonetics Keratinocyte Basal Medium (KBM) supplemented with 14 μg/ml bovine pituitary extract, 0.4 μg/ml hydrocortisone, 5 μg/ml insulin, 10 ng/ml epidermal growth factor, 1.2×10^−10 M cholera toxin, 100 units/ml penicillin, and 100 μg/ml streptomycin. All cultures were incubated at 37° C. in the presence of 7.5% CO2. Medium was changed three times per week.
On the day of experimentation, the growth medium was removed and the sebocytes washed three times with sterile Dulbecco's Modified Eagle Medium (DMEM; phenol red free). Fresh DMEM was added to each sample (duplicates, triplicates, or quadruplicates depending on the experiment) with 5 μL of test agent solubilized in ethanol or sterile, distilled water. Controls consisted of addition of ethanol alone or phenol red. Phenol Red, a known sebum suppressive agent, was employed as a positive control.
Each plate was returned to the incubator for 20 hours followed by the addition of ^14C-acetate buffer (5 mM final concentration, 56 mCi/mmol specific activity). Sebocytes were returned to the incubator for four hours after which each culture was rinsed three times with phosphate buffered saline to remove unbound label. Radioactive label remaining in the sebocytes was harvested and counted using a TopCount-NXT brand scintillation counter (Packard Co., Meriden, Conn.).
The results that were obtained, expressed in terms of amount of radioactive label remaining in the sebocytes as a percent of control, are summarized in Table 2. A lower radioactive label, i.e. a lower % of control, indicates a greater inhibition of sebocyte lipogenesis.
The experiments were conducted using the procedure set forth in the Example 3 above, with the concentrations of the compounds varied, in order to determine the concentration for each compound tested which provide a 50% sebum suppression.

tridecylcarboxymethylate [TDCM]
radioactive label remaining in the sebocytes, % of Control (1 μM): 84.8* % of Control | radioactive label remaining in the sebocytes, % of Control (10 μM): 43.4* % of Control | radioactive label remaining in the sebocytes, % of Control (100 μM): 22.8* % of Control | inhibition of lipogenesis, in words: enhanced inhibition of lipogenesis at all tested concentrations

C13 isoalcohol propionitrile [Compound 2]
IC50: > 100 µM

iso-tridecyloxy propionic acid [Compound 1]
radioactive label remaining in the sebocytes, % of Control (1 μM): 48.7* % of Control | radioactive label remaining in the sebocytes, % of Control (10 μM): 34.6* % of Control | radioactive label remaining in the sebocytes, % of Control (100 μM): 11.9* % of Control | inhibition of lipogenesis, in words: enhanced inhibition of lipogenesis at all tested concentrations | effectiveness in inhibition of lipogenesis relative to TDCM (comparison of Table 2 data): almost twice as effective as TDCM | activity as sebum suppressant relative to the branched alcohol from which it is derived (from IC50 of Table 3): about 20 times | IC50: 5 µM

O=S1(=O)OC(c2ccc(O)cc2)(c2ccc(O)cc2)c2ccccc21 [Phenol Red]
radioactive label remaining in the sebocytes, % of Control (100 μM): 46.3* % of Control

C13 isoalcohol [Compound 4]
IC50: 100 µM

C13 isoalcohol glycerol [Compound 5]
IC50: > 100 µM

C13 isoalcohol oxypropyl amine [Compound 3]
IC50: ~100 µM
